As usually defined, the IC50 is the concentration that inhibits the measured activity by half.

Data on one compound can be found in US11408885B2, “Compositions and multiplex assays for characterizing active proteases and their inhibitors” (Massachusetts Institute of Technology, priority 2017, dated 2022).

The structures appear in SMILES notation.

Test [1] has as its target MMP12 (Homo sapiens, UniProt P39900). In words: FRET substrate cleavage by recombinant MMP, inhibition by activity-based probe. The settings on record: FRET substrate PEPDAB008 10 μM, read-out: IC50, inhibition of substrate cleavage of active MMP. More on the design: The recombinant catalytic domains of human MMPs 7 and 9 were purchased from Enzo Life Sciences, and of MMP 12 from Anaspec; purchased Anaspec. The class given is biochemical. From the text: (§1) The binding of an activity-based probe, e.g., HxBP-Bt, to the active site of an MMP (as shown in FIG. 1A) would effectively reduce (or inhibit) the ability of such MMP to cleave its substrate. […] This correlation should also provide an IC50 value to measure the sensitivity/potency of the MAMBI system to bind, and thereby quantify, active MMPs. […] Fluorescence resonance energy transfer (FRET) technique is used to determine if a substrate is cleaved by pre-labeling two parts of a substrate molecule with a donor chromophore and an acceptor chromophore, respectively, and measuring the energy transfer efficiency from the donor to the acceptor chromophore to determine if two fluorophores are within a certain distance of each other, i.e. the substrate is intact and uncleaved. […] The fluorescence was monitored by plate reader. In general, readings measured fluorescence every 20 minutes for roughly five hours and the reported rate of increase in fluorescence was calculated from fitting a linear portion of this increase including at least 4 data points and subtracting the average increase in background, protease-free conditions. […] Reaction velocities were calculated from linear reaction periods from raw fluorescence value time courses. […] Relative rates of FRET substrate cleavage among samples with the addition of HxBP-Bt were quantified and compared with the rates without HxBP-Bt. […]

Test [2] relates to aggregate metalloprotease activity of conditioned medium. In words: FRET substrate cleavage in conditioned media of cell cultures. Type of test: biochemical, human. How it is done:
Eight conditioned mediums were assayed, each tested in two complete biological replicates (n=2), from these cell cultures: four endometrial related cell populations including (1) primary endometrial stromal cells (pESC), (2) telomerase-immortalized human endometrial stromal cells (tHESC) (Krikun et al., Endocrinology, 145(5):2291-6 (2004)), (3) an adenocarcinoma endometrial epithelial cell line, Ishikawa, and (4) an epithelial line derived from an endometriosis lesion, 12z; three canonical cancer cell lines including (5) A549, (6) […], and (7) HT1080; as well as (8) human telomerase reverse transcriptase (hTERT) immortalized mesenchymal stem cell line (MSC).
Conditioned supernatant was prepared: collected at 12 h, spun down at 200 g for 5 min to remove debris, and immediately flash-frozen. For FRET-substrate assays involving this supernatant, final reactions were composed of a 2:1:1 mixture of […] substrate diluted from 5 mMDMSO stock into phosphate buffered saline, 4 nM active MMP7 diluted in ‘MMP buffer’, and thawed supernatant.
Validation of HxBP-Bt probe binding to the active sites of proteases in conditioned media was performed based on the FRET-based study as described in Example 1, without the addition of MMP capture beads. […]

Test [3] deals with MMP9 (Homo sapiens, UniProt P14780). Put plainly: FRET substrate cleavage by recombinant MMP, inhibition by activity-based probe. The class given is biochemical. More on the design: The recombinant catalytic domains of human MMPs 7 and 9 were purchased from Enzo Life Sciences, and of MMP 12 from Anaspec; purchased Enzo Life Sciences. The settings on record: FRET substrate PEPDAB011 10 μM, read-out: IC50, inhibition of substrate cleavage of active MMP.
Sequence of MMP9 (P14780 107-449 limits assumed): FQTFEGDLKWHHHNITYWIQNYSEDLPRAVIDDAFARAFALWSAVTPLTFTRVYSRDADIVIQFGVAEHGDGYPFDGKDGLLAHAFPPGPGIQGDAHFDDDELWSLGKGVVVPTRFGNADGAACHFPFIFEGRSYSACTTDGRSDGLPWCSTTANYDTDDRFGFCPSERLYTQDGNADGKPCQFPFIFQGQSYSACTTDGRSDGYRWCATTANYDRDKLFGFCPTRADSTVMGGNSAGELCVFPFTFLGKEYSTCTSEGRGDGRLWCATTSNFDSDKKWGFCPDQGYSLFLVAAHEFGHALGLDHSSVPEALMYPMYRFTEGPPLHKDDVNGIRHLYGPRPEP
Source text: as §1

The target in test [4] is T1, MMP7 (Homo sapiens, UniProt P09237).
T1 sequence (P09237 95-267): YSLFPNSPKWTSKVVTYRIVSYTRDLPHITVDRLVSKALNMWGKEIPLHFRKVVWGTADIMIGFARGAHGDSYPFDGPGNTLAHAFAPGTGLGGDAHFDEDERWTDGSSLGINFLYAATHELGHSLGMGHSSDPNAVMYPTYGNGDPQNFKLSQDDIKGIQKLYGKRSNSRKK
The description is as above. The class given is biochemical. More on the design: The recombinant catalytic domains of human MMPs 7 and 9 were purchased from Enzo Life Sciences, and of MMP 12 from Anaspec; purchased Enzo Life Sciences. The settings on record: FRET substrate PEPDAB008 10 μM, read-out: IC50, inhibition of substrate cleavage of active MMP.
Source text: as §1

Sequence of MMP12 (P39900 106-263 limits assumed): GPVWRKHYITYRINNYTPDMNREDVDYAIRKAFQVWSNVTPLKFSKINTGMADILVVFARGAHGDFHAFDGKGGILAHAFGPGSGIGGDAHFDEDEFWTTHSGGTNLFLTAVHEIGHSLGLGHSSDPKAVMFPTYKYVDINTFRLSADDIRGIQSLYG

`CC(C)CC(C(=O)NC(Cc1ccc(C(=O)c2ccccc2)cc1)C(=O)NCCOCCOCCOCC(=O)NCC(C)(C)SSC(C)(C)CNC(=O)CCCCC1SCC2NC(=O)NC21)C(O)C(=O)NO` (centres unmarked) [HxBP-Bt, biotin-tagged hydroxamate benzophenone (HxBP-Bt) probe]: the IC50 turned out to be 4 nM in test [1], 2.7 nM in test [3] and 9.2 nM in test [4]. The “effect on substrate cleavage (bulk protease activity)” value in test [2] (eight conditioned media normalized to 1000 μg/mL, 500 nM HxBP-Bt) is listed as “greatly deceased the substrate cleavage ability”; in test [2] (eight conditioned media, 1500 nM HxBP-Bt, in some cases) it was “further decreased the protease activities”.
